Laboratory results reported in paper PMC10622577, “Structural basis for stabilisation of the RAD51 nucleoprotein filament by BRCA2” (Nature Communications, 2023).

How the values were obtained:
RAD51 D184A = experiment: EMSA of BRC4 disruption of NPF formation, RAD51 D184A; assay type: binding, human; settings: BRC4 pre-mixed with RAD51 10 min, room temperature, before addition of ss- or dsDNA, performed once
Experimental: (§1) To test whether the acidic patch was also required for BRC4 binding to RAD51, we examined whether the interaction of a BRC4 peptide spanning BRCA2 amino acids 1514 to 1548 was impacted by the D184A and D184A, D187 mutations.
(§2) To assess RAD51 nucleoprotein (NPF) formation, wild-type and mutant RAD51 proteins were incubated with DNA in buffer: 25 mM HEPES pH 7.5, 150 mM NaCl, 2 mM DTT, 2 mM ATP, 5 mM CaCl2 for 15 minutes at room temperature. For filament binding of the TR2 peptide or His6-MBP-TR2 protein, the RAD51 NPFs were incubated with TR2 for further 5 minutes at room temperature. For filament binding of BRC4, the BRC4 peptide was pre-mixed with RAD51 for 10 minutes at room temperature before addition of DNA. For experiments with mono-streptavidin (mSA)-capped DNA, mSA (Sigma) was added in 5× molar excess of biotin labels for 15 minutes at room temperature prior to the addition of RAD51. Concentrations are provided in figures and DNA sequences for each experiment are reported in Supplementary Table 1.
(§3) Before electrophoresis, samples were mixed with a 0.5:1 volume of 50% (w/v) sucrose solution and analysed on a pre-run 0.5% (w/v) agarose gel in 0.5× TB buffer at 35 V for 2.5 hours at 4 °C. DNA was visualised by excitation of the fluorescent tag or, in the case of unlabelled DNA, by SYBR Gold staining. […]

RAD51 D184A, D187A = experiment: EMSA of BRC4 disruption of NPF formation, RAD51 D184A, D187A; assay type: binding, human; settings: BRC4 pre-mixed with RAD51 10 min, room temperature, before addition of ss- or dsDNA, performed once
Experimental: as §1, §2, §3

wild-type RAD51 NPF = experiment: SPR of BRC4-induced disassembly of wild-type RAD51 NPF; assay type: binding, human; settings: BRC4 0.1-15 μM, 120 s, CMA buffer pH 7.4, response minima, ss- and dsDNA, n = 3
Experimental: (§4) We investigated further the effect of the acidic patch mutations on TR2 binding using surface plasmon resonance (SPR). We developed an SPR assay whereby increasing amounts of TR2 peptide were added to RAD51 NPFs that had been assembled on biotinylated DNA coupled to a streptavidin chip (Supplementary Fig. 3A, Supplementary Table 1). […] We used the same SPR assay to assess the effect of the mutations on the ability of BRC4 to disrupt an established filament (Supplementary Fig. 4A, Supplementary Table 1).
(§5) All SPR experiments were performed using a Biacore T200 instrument and an S-series SA (Streptavidin) sensor chip. A single chip was used to immobilise biotinylated single- and double-stranded DNA in buffer: 25 mM HEPES pH 7.4, 100 mM NaCl, 1 mM EDTA. ssDNA and dsDNA were immobilised in different channels to a signal of 120 RU and 250 RU, respectively.
(§6) All binding experiments were performed in CMA buffer: 25 mM HEPES pH 7.4, 100 mM NaCl, 2 mM DTT, 2 mM ATP, 5 mM CaCl2, 5 mM MgCl2. 1 μM RAD51 (wild-type, D184A or D184A, D187A mutant proteins) was injected for 120 seconds followed by buffer for 120 seconds at a flow rate of 10 μl/min. TR2 or BRC4 peptides were then injected in a concentration titration series of 0.1, 0.25, 0.5, 0.75, 1, 2, 3, 5, 7.5, 10 and 15 μM for 120 seconds at a flow rate of […] followed by a dissociation time of 240 seconds. […]

RAD51 D184A NPF = experiment: SPR of BRC4-induced disassembly of RAD51 D184A NPF; assay type: binding, human; settings: BRC4 0.1-15 μM, 120 s, CMA buffer pH 7.4, response minima, ss- and dsDNA, n = 3
Experimental: as §4, §5, §6

RAD51 D184A, D187A NPF = experiment: SPR of BRC4-induced disassembly of RAD51 D184A, D187A NPF; assay type: binding, human; settings: BRC4 0.1-15 μM, 120 s, CMA buffer pH 7.4, response minima, ss- and dsDNA, n = 3
Experimental: as §4, §5, §6

RAD51;BRCA2 TR2 peptide [1] = target: T1, RAD51;BRCA2 TR2 peptide (Homo sapiens;Homo sapiens, UniProt Q06609;P51587 1-339;, |); experiment: cryo-EM structure; mSA caps; no bundling; EMSA: 25 mM HEPES pH 7.5, 150 mM NaCl, 2 mM DTT, 2 mM ATP, 5 mM CaCl2, room temperature; SPR: 25 mM HEPES pH 7.4, 100 mM NaCl, 2 mM DTT, 2 mM ATP, 5 mM CaCl2, 5 mM MgCl2; settings: tags: untagged (co-expressed with His6-MBP-BRC4, pMBP4-RAD51);; label: 5' biotin on both strands; 3' Cy3 on strand 1; blunt ends, internal mismatched bubble about 10 nt
RAD51;BRCA2 TR2 peptide [2] = target: T1, RAD51;BRCA2 TR2 peptide; experiment: cryo-EM structure; mSA caps; EMSA: 25 mM HEPES pH 7.5, 150 mM NaCl, 2 mM DTT, 2 mM ATP, 5 mM CaCl2, room temperature; SPR: 25 mM HEPES pH 7.4, 100 mM NaCl, 2 mM DTT, 2 mM ATP, 5 mM CaCl2, 5 mM MgCl2; settings: tags: untagged (co-expressed with His6-MBP-BRC4, pMBP4-RAD51);; label: 5' and 3' biotin

EKIKEPTLLGFHTASGKKVKIAKESLDKVKNLFDE [BRC4, BRC4 peptide spanning BRCA2 amino acids 1514 to 1548]
ability of BRC4 to disrupt RAD51 NPF formation (RAD51 D184A): moderately reduced | ability of BRC4 to disrupt RAD51 NPF formation (RAD51 D184A, D187A): severely impaired | disassembly of an established RAD51 NPF by BRC4 (wild-type RAD51 NPF): able to induce disassembly of a wild-type RAD51 NPF | disassembly of an established RAD51 NPF by BRC4 relative to wild-type (RAD51 D184A NPF): moderately reduced | disassembly of an established RAD51 NPF by BRC4, reduction relative to wild-type (RAD51 D184A, D187A NPF): to a large degree

B1: 50-nt dsDNA doubly biotinylated Cy3 (dsDNA)
DNA 1: CCGACTGACGCTCAACATAGGTACCACACGGCGAGCTCGATGCACCTCCA
DNA 2: TGGAGGTGCATCGAGCTCGCGACAAACCTTCTATGTTGAGCGTCAGTCGG
binding result (RAD51;BRCA2 TR2 peptide [1]): binds

B2: 60-nt ssDNA doubly biotinylated (ssDNA)
DNA: ATGGTGTGTGTAGGTTAATGTGAGGAGGAGAGGTGAAGAAGGAGGAGAGAAGAAGGAGGC
binding result (RAD51;BRCA2 TR2 peptide [2]): binds
